Assay results as given in US12435091B2, “RNA-binding protein multimerization inhibitors and methods of use thereof” (THE UAB RESEARCH FOUNDATION, priority 2020, dated 2025).
Like-named read-outs stand apart in the source and are kept apart here.

Legend:
[1] = aqueous solubility at pH 7.4; format: physicochemical
Procedure: Selected compounds were assessed for their aqueous solubility, Log D and mouse and human liver microsomal stability.

[2] = test system: U251 cells expressing Fluc construct; experiment: control Fluc (full length luciferase) reporter assay in U251 cells; format: cell-based; details: for inhibition at 50 µM / inhibition at 25 µM / inhibition at 100 µM: Homo sapiens, U-251, 6 h, read-out: Fluc Imax % Inh; for inhibition at 50 µM: Concn 50 uM; for inhibition at 25 µM: Concn 25 uM; for inhibition at 100 µM: Concn 100 uM
Procedure: The oncogenic activity of HuR is driven by subcellular localization into the cytoplasm and formation of multimers of HuR. To develop cell based assays to characterize the ability of small molecules to disrupt this process, a split luciferase assay detecting the formation of HuR dimers was developed. The assays were performed in 96 well plates with clear bottom (Corning Inc., Corning, NY). Cells with designed constructs (30,000-50,000 in number) were plated per well; the constructs were induced by doxycycline (0.75 ug/ml) for 48 hours. The evaluated compounds at different concentrations and the corresponding vehicle as the control were administered for 6 hours. The luminescence signals were detected by using InfinitiM200 plate reader (TECAN, Morrisville, NC) in the presence of the luciferase substrate luciferin (D-Luciferin, potassium salt), which was purchased from GoldBio (St Louis, MO). A multichannel pipette (XL 3000I™, Denville Scientific, South Plainfield, NJ) was used in all procedures to ensure the experiment quality. […]
(§1) Squares represent luminescence signal from reporter representing HuR dimers (U251 cells co-expressing HuR-Nluc and HuR-Cluc constructs); circles represent luminescence signal from control reporter (U251 cells expressing Fluc construct). Results are shown as mean+SD.

HuR = target: T1, HuR (Homo sapiens, UniProt Q15717); experiment: cell-based split firefly luciferase-HuR dimerization assay; details: for IC50: read-out: HuR IC50
T1 construct: expressed in transfected cells; host or cells: U251 glioma cells, doxycycline-inducible constructs
T1 sequence (Q15717 whole entry): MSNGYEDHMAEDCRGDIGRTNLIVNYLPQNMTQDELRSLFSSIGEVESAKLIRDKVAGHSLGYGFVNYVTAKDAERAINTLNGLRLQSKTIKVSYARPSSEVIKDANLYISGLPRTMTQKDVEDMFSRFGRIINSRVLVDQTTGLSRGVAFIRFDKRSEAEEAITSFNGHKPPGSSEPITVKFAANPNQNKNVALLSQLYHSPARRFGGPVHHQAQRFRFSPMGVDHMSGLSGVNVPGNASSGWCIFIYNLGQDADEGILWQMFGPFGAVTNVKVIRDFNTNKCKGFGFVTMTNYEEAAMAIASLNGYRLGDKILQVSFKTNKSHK
Procedure: The oncogenic activity of HuR is driven by subcellular localization into the cytoplasm and formation of multimers of HuR. To develop cell based assays to characterize the ability of small molecules to disrupt this process, a split luciferase assay detecting the formation of HuR dimers was developed. The assays were performed in 96 well plates with clear bottom (Corning Inc., Corning, NY). Cells with designed constructs (30,000-50,000 in number) were plated per well; the constructs were induced by doxycycline (0.75 ug/ml) for 48 hours. The evaluated compounds at different concentrations and the corresponding vehicle as the control were administered for 6 hours. The luminescence signals were detected by using InfinitiM200 plate reader (TECAN, Morrisville, NC) in the presence of the luciferase substrate luciferin (D-Luciferin, potassium salt), which was purchased from GoldBio (St Louis, MO). A multichannel pipette (XL 3000I™, Denville Scientific, South Plainfield, NJ) was used in all procedures to ensure the experiment quality.
The assay used the coding sequence of HuR in frame with the N-terminus of firefly luciferase or the C-terminus as depicted in FIG. 2A. When HuR forms dimers in this case, luciferase is generated and with luciferin present, luminescence is generated.
as §1

[3] = U251 cells co-expressing HuR-Nluc and HuR-Cluc, 6 hours of treatment
[4] = split luciferase HuR dimerization assay, compounds administered for 6 hours

SMILES	HuR N/C Imax % Inh (HuR; Concn 50 uM) [%]	IC50 (HuR; [3]) [µM]	IC50 (HuR; [4]) [µM]	inhibition at 50 µM [2] [%]	further results
CN(c1cnn(C2CCOCC2)c1)c1ncc2nnn(-c3ccc4cn[nH]c4c3)c2n1 [Compound 3, 3-(1H-Indazol-6-yl)-N-methyl-N-(1-(tetrahydro-2H-pyran-4-yl)-1H-pyrazol-4-yl)-3H-[1,2,3]triazolo[4,5-d]pyrimidin-5-amine]	–	–	–	–	aqueous solubility (in words) [1]: poor aqueous solubility
CN(c1ccc2ncc(-c3ccc4nccn4c3)n2n1)C1CCOCC1 [Compound 18, 3-(Imidazo[1,2-a]pyridin-6-yl)-N-methyl-N-(tetrahydro-2H-pyran-4-yl)imidazo[1,2-b]pyridazin-6-amine]	89	3	3	6	–
CN(c1ccc2ncc(-c3ccc4cnn(C)c4c3)n2n1)C1CCOCC1 [Compound 21, N-Methyl-3-(1-methyl-1H-indazol-6-yl)-N-(tetrahydro-2H-pyran-4-yl)imidazo[1,2-b]pyridazin-6-amine]	71	3.4	3.4	28	–
CN(c1ccc2ncc(-c3ccc4cn[nH]c4c3)n2n1)C1CCCCC1 [Compound 22, N-Cyclohexyl-3-(1H-indazol-6-yl)-N-methylimidazo[1,2-b]pyridazin-6-amine]	93	9	9	32	–
CN(c1ccc2ncc(-c3ccc4[nH]cnc4c3)n2n1)C1CCOCC1 [Compound 37, 3-(1H-Benzo[d]imidazol-5-yl)-N-methyl-N-(tetrahydro-2H-pyran-4-yl)imidazo[1,2-b]pyridazin-6-amine]	87	8	8	14	–
c1cc2[nH]ncc2cc1-c1cnc2ccc(NC3CCOCC3)nn12 [Compound 39, 3-(1H-Indazol-5-yl)-N-(tetrahydro-2H-pyran-4-yl)imidazo[1,2-b]pyridazin-6-amine]	–	–	0.3	–	inhibition at 25 µM [2]: 28%; HuR N/C Imax % Inh (HuR; Concn 25 uM): 94%
CN(c1ccc2ncc(-c3ccc4[nH]ncc4c3)n2n1)C1CCOCC1 [Compound 40, 3-(1H-Indazol-5-yl)-N-methyl-N-(tetrahydro-2H-pyran-4-yl)imidazo[1,2-b]pyridazin-6-amine]	–	–	0.3	–	inhibition at 25 µM [2]: 23%; HuR N/C Imax % Inh (HuR; Concn 25 uM): 90%
c1ccc(CNc2ccc3ncc(-c4ccc5[nH]ncc5c4)n3n2)cc1 [Compound 47, N-Benzyl-3-(1H-indazol-5-yl)imidazo[1,2-b]pyridazin-6-amine]	93	3	3	24	–
CCCN(C)c1ccc2ncc(-c3ccc4[nH]ncc4c3)n2n1 [Compound 49, 3-(1H-Indazol-5-yl)-N-methyl-N-propylimidazo[1,2-b]pyridazin-6-amine]	–	0.6	0.6	–	inhibition at 100 µM [2]: 12%; HuR N/C Imax % Inh (HuR; Concn 100 uM): 89%
c1cc2[nH]ncc2cc1-c1cnc2ccc(N3CCOCC3)nn12 [Compound 51, 4-(3-(1H-Indazol-5-yl)imidazo[1,2-b]pyridazin-6-yl)morpholine]	87	7	7	27	–
CN1CCN(c2ccc3ncc(-c4ccc5[nH]ncc5c4)n3n2)CC1 [Compound 52, 3-(1H-Indazol-5-yl)-6-(4-methylpiperazin-1-yl)imidazo[1,2-b]pyridazine]	90	8	8	13	–
CN(c1ccc2ncc(-c3cnc4[nH]ncc4c3)n2n1)C1CCOCC1 [Compound 55, N-Methyl-3-(1H-pyrazolo[3,4-b]pyridin-5-yl)-N-(tetrahydro-2H-pyran-4-yl)imidazo[1,2-b]pyridazin-6-amine]	90	1.2	1.2	10	–
CCCN(C)c1ccc2ncc(-c3cnc4[nH]ncc4c3)n2n1 [Compound 56, N-Methyl-N-propyl-3-(1H-pyrazolo[3,4-b]pyridin-5-yl)imidazo[1,2-b]pyridazin-6-amine]	–	–	–	5	–
c1cc2[nH]ncc2cc1-c1cnc2ccc(OC3CCOCC3)nn12 [Compound 57, 3-(1H-Indazol-5-yl)-6-((tetrahydro-2H-pyran-4-yl)oxy)imidazo[1,2-b]pyridazine]	89	–	2	12	–
c1cc2cn[nH]c2cc1-c1cnc2ccc(OC3CCOCC3)nn12 [Compound 58]	82	–	3	23	–
c1nn(C2CCOCC2)cc1Nc1ncc2nnn(-c3ccc4cn[nH]c4c3)c2n1 [Compound A-92]	93	4.5	–	32	decrease of luminescence signal from cells overexpressing the control Fluc construct ([2]; 6 hours, represents the cytotoxic effect): 32±7%; maximum inhibition of HuR dimerization (HuR; after 6 hours of cell treatment): 93±2%
Clc1ccc2ncc(-c3ccc4cn[nH]c4c3)n2n1 [SRI-43183]	–	–	–	–	inhibition at 100 µM [2]: 20%; HuR N/C Imax % Inh (HuR; Concn 100 uM): 76%
COc1ncccc1-c1cnn2ccc(N3CCN(C(=O)OC(C)C)CC3)nc12 [SRI-43414]	45	> 50	–	28	–

Continued, in another order:

HuR N/C Imax % Inh (HuR; Concn 50 uM) [%]	IC50 (HuR; [3]) [µM]	IC50 (HuR; [4]) [µM]	SMILES	inhibition at 50 µM [2] [%]	further results
–	> 100	–	FC(F)(F)c1nnc2ccc(NCCc3c[nH]c4ccccc34)nn12 [SRI-41639]	–	inhibition at 100 µM [2]: 17%; HuR N/C Imax % Inh (HuR; Concn 100 uM): 49%
–	> 100	–	Cc1cc(-c2cnn3c(NC[C@H]4C[C@@](C)(O)C4)cc(Oc4cccnc4)nc23)ccc1C(=O)NC1CC1 [SRI-41646]	–	inhibition at 100 µM [2]: 15%; HuR N/C Imax % Inh (HuR; Concn 100 uM): 3%
89	> 25	–	CN1CCN(Cc2ccc(-c3cnc4[nH]cc(-c5ccc6[nH]ccc6c5)c4c3)cc2)CC1 [SRI-41647]	4	–
0	–	–	Clc1ncc2nnn(-c3ccc4cn[nH]c4c3)c2n1 [SRI-42123]	0	–
82	20 to 22	–	Brc1cnc2ccc(NC3CCOCC3)nn12 [SRI-42219]	32	–
57	40	–	CN(CCNc1ccc2ncc(-c3ccc(C(N)=O)cc3)n2n1)C(=O)OC(C)(C)C [SRI-43415]	9	–
0	–	–	COc1ccc(-c2[nH]ncc2C(=O)NCC2CC2)cc1Cl [SRI-43649]	0	–
0	–	–	O=C(c1ccc2nsnc2c1)N1CCN(C(=O)C2CC2c2cccs2)CC1 (centres unmarked) [SRI-43650]	0	–
0	–	–	Cc1ccc(S(=O)(=O)NC(C(=O)Oc2ccc3c4c(c(=O)oc3c2C)CCC4)c2ccccc2)cc1 (centres unmarked) [SRI-43651]	0	–
0	–	–	CCC(C)NS(=O)(=O)c1ccc2oc(=O)ccc2c1 (centres unmarked) [SRI-43652]	0	–
0	–	–	O=C(c1ccc(=O)[nH]c1)N1CCN(C(=O)C2CC2c2ccccc2)CC1 (centres unmarked) [SRI-43653]	0	–
0	–	–	O=C(CCn1ccc(=O)[nH]c1=O)N1CCN(C(=O)C2CC2c2ccc3c(c2)OCO3)CC1 (centres unmarked) [SRI-43654]	0	–
28	> 50	–	O=C(C1CCCC1)N1CCN(C(=O)C2CC2c2ccc3c(c2)OCO3)CC1 (centres unmarked) [SRI-43655]	10	–
